From patent US20250230193A1, “CYCLIC COMPOUND HAVING SELECTIVE KRAS INHIBITORY EFFECT ON HRAS AND NRAS” (CHUGAI SEIYAKU KABUSHIKI KAISHA, priority 2022, published 2025)
Where a SMILES comes first, the peptide text is derived from it. Bridges are numbered along the chain shown (N, C = ends). [ ]: non-standard residue; d: D form. The star is where a group is joined. hPhe(3-Cl-4-CF3) = N[C@@H](CCc1ccc(C(F)(F)F)c(Cl)c1)C(=O)O; NPrPhe(4-CF3) = CCCN[C@@H](Cc1ccc(C(F)(F)F)cc1)C(=O)O; NMeGly(cPent) = CN[C@H](C(=O)O)C1CCCC1; Pro(4,4-F2) = O=C(O)[C@@H]1CC(F)(F)CN1; Hyp = O=C(O)[C@@H]1C[C@@H](O)CN1; NMeL = CN[C@@H](CC(C)C)C(=O)O; Morpholide = C1CN(*)CCO1; Ac5c = NC1(C(=O)O)CCCC1; Aze = O=C(O)[C@@H]1CCN1; Ac4c = NC1(C(=O)O)CCC1; Sar = CNCC(=O)O

What was measured:
[1] = biological target: GDP-bound HRAS wild-type protein (Homo sapiens, UniProt P01112); test: Binding to HRAS by surface plasmon resonance (SPR), Single Cycle Kinetics; conditions: KD ratio HRAS/KRAS, SPR
[2] = biological target: GDP-bound NRAS wild-type protein (Homo sapiens, UniProt P01111); test: Binding to NRAS by surface plasmon resonance (SPR), Single Cycle Kinetics; conditions: KD ratio NRAS/KRAS, SPR
GDP-bound NRAS wild-type protein, sequence (P01111 whole entry): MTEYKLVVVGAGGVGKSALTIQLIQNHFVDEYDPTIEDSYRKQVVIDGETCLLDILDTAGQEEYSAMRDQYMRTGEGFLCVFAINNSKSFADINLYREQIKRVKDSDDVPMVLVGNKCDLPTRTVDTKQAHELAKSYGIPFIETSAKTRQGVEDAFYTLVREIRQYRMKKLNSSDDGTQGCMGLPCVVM

GDP-bound HRAS wild-type protein, sequence (P01112 whole entry): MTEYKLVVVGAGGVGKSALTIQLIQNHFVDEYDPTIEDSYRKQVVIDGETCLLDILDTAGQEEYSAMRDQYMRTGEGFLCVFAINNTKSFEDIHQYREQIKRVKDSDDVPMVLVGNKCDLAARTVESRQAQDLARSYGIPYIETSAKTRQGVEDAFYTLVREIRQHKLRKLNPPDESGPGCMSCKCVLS

Row | Structure (SMILES) | HRAS/KRAS (ratio of KD for GDP-bound HRAS wild-type to KD for KRAS) [1] | NRAS/KRAS (ratio of KD for GDP-bound NRAS wild-type to KD for KRAS) [2]
1 | CCCN1C(=O)[C@@H]2CCN2C(=O)CN(C)C(=O)[C@H]([C@@H](C)CC)NC(=O)[C@H](CC(C)C)N(C)C(=O)C[C@@H](C(=O)N2CCOCC2)NC(=O)[C@H](C2CCCC2)N(C)C(=O)C2(CCCC2)NC(=O)[C@@H]2C[C@@H](OCC)CN2C(=O)[C@H](CCc2ccc(C(F)(F)F)c(Cl)c2)NC(=O)CN(C)C(=O)[C@@H]1Cc1ccc(C(F)(F)F)cc1 [PP0353] ([NMeL]I[Sar][Aze][NPrPhe(4-CF3)][Sar][hPhe(3-Cl-4-CF3)][Hyp](Et)[Ac5c][NMeGly(cPent)]D-Morpholide; lactam N-11) | B (a compound having 3 or more and less than 10 is denoted as B) | C (A compound having a KD ratio of 0.1 or more and less than 3 is denoted as C)
2 | CCCN1C(=O)[C@@H]2CCN2C(=O)CN(C)C(=O)[C@H]([C@@H](C)CC)NC(=O)[C@H](CC(C)C)N(C)C(=O)C[C@@H](C(=O)N2CCOCC2)NC(=O)[C@H](C2CCCC2)N(C)C(=O)C2(CCC2)NC(=O)[C@@H]2C[C@@H](OCC)CN2C(=O)[C@H](CCc2ccc(C(F)(F)F)c(Cl)c2)NC(=O)CN(C)C(=O)[C@@H]1Cc1ccc(C(F)(F)F)cc1 [PP0354] ([NMeL]I[Sar][Aze][NPrPhe(4-CF3)][Sar][hPhe(3-Cl-4-CF3)][Hyp](Et)[Ac4c][NMeGly(cPent)]D-Morpholide; lactam N-11) | B (a compound having 3 or more and less than 10 is denoted as B) | C (A compound having a KD ratio of 0.1 or more and less than 3 is denoted as C)
3 | CCCN1C(=O)CN(C)C(=O)CN(C)C(=O)[C@H]([C@@H](C)CC)NC(=O)[C@H](CC(C)C)N(C)C(=O)C[C@@H](C(=O)N(C)C)NC(=O)[C@H](C2CCCC2)N(C)C(=O)C2(CCCC2)NC(=O)[C@@H]2CCCN2C(=O)[C@H](CCc2ccc(C(F)(F)F)c(Cl)c2)NC(=O)CN(C)C(=O)[C@@H]1Cc1ccc(C(F)(F)F)cc1 [PP0355] ([NMeL]I[Sar][Sar][NPrPhe(4-CF3)][Sar][hPhe(3-Cl-4-CF3)]P[Ac5c][NMeGly(cPent)]D-NMe2; lactam N-11) | B (a compound having 3 or more and less than 10 is denoted as B) | B (a compound having 3 or more and less than 10 is denoted as B)
4 | CCCN1C(=O)CN(C)C(=O)CN(C)C(=O)[C@H]([C@@H](C)CC)NC(=O)[C@H](CC(C)C)N(C)C(=O)C[C@@H](C(=O)N(C)C)NC(=O)[C@H](C2CCCC2)N(C)C(=O)C2(CCC2)NC(=O)[C@@H]2CCCN2C(=O)[C@H](CCc2ccc(C(F)(F)F)c(Cl)c2)NC(=O)CN(C)C(=O)[C@@H]1Cc1ccc(C(F)(F)F)cc1 [PP0356] ([NMeL]I[Sar][Sar][NPrPhe(4-CF3)][Sar][hPhe(3-Cl-4-CF3)]P[Ac4c][NMeGly(cPent)]D-NMe2; lactam N-11) | B (a compound having 3 or more and less than 10 is denoted as B) | B (a compound having 3 or more and less than 10 is denoted as B)
5 | CCCN1C(=O)CN(C)C(=O)CN(C)C(=O)[C@H]([C@@H](C)CC)NC(=O)[C@H](CC(C)C)N(C)C(=O)C[C@@H](C(=O)N(C)C)NC(=O)[C@H](C2CCCC2)N(C)C(=O)C2(CCCC2)NC(=O)[C@@H]2CC(F)(F)CN2C(=O)[C@H](CCc2ccc(C(F)(F)F)c(Cl)c2)NC(=O)CN(C)C(=O)[C@@H]1Cc1ccc(C(F)(F)F)cc1 [PP0357] ([NMeL]I[Sar][Sar][NPrPhe(4-CF3)][Sar][hPhe(3-Cl-4-CF3)][Pro(4,4-F2)][Ac5c][NMeGly(cPent)]D-NMe2; lactam N-11) | B (a compound having 3 or more and less than 10 is denoted as B) | B (a compound having 3 or more and less than 10 is denoted as B)
6 | CCCN1C(=O)CN(C)C(=O)CN(C)C(=O)[C@H]([C@@H](C)CC)NC(=O)[C@H](CC(C)C)N(C)C(=O)C[C@@H](C(=O)N(C)C)NC(=O)[C@H](C2CCCC2)N(C)C(=O)C2(CCC2)NC(=O)[C@@H]2CC(F)(F)CN2C(=O)[C@H](CCc2ccc(C(F)(F)F)c(Cl)c2)NC(=O)CN(C)C(=O)[C@@H]1Cc1ccc(C(F)(F)F)cc1 [PP0358] ([NMeL]I[Sar][Sar][NPrPhe(4-CF3)][Sar][hPhe(3-Cl-4-CF3)][Pro(4,4-F2)][Ac4c][NMeGly(cPent)]D-NMe2; lactam N-11) | C (A compound having a KD ratio of 0.1 or more and less than 3 is denoted as C) | B (a compound having 3 or more and less than 10 is denoted as B)
7 | CCCN1C(=O)CN(C)C(=O)CN(C)C(=O)[C@H]([C@@H](C)CC)NC(=O)[C@H](CC(C)C)N(C)C(=O)C[C@@H](C(=O)N(C)C)NC(=O)[C@H](C2CCCC2)N(C)C(=O)C2(CCCC2)NC(=O)[C@@H]2C[C@@H](OCC)CN2C(=O)[C@H](CCc2ccc(C(F)(F)F)c(Cl)c2)NC(=O)CN(C)C(=O)[C@@H]1Cc1ccc(C(F)(F)F)cc1 [PP0359] ([NMeL]I[Sar][Sar][NPrPhe(4-CF3)][Sar][hPhe(3-Cl-4-CF3)][Hyp](Et)[Ac5c][NMeGly(cPent)]D-NMe2; lactam N-11) | B (a compound having 3 or more and less than 10 is denoted as B) | B (a compound having 3 or more and less than 10 is denoted as B)
8 | CCCN1C(=O)CN(C)C(=O)CN(C)C(=O)[C@H]([C@@H](C)CC)NC(=O)[C@H](CC(C)C)N(C)C(=O)C[C@@H](C(=O)N(C)C)NC(=O)[C@H](C2CCCC2)N(C)C(=O)C2(CCC2)NC(=O)[C@@H]2C[C@@H](OCC)CN2C(=O)[C@H](CCc2ccc(C(F)(F)F)c(Cl)c2)NC(=O)CN(C)C(=O)[C@@H]1Cc1ccc(C(F)(F)F)cc1 [PP0360] ([NMeL]I[Sar][Sar][NPrPhe(4-CF3)][Sar][hPhe(3-Cl-4-CF3)][Hyp](Et)[Ac4c][NMeGly(cPent)]D-NMe2; lactam N-11) | C (A compound having a KD ratio of 0.1 or more and less than 3 is denoted as C) | B (a compound having 3 or more and less than 10 is denoted as B)
9 | CCCN1C(=O)CN(C)C(=O)CNC(=O)[C@H]([C@@H](C)CC)NC(=O)[C@H](CC(C)C)N(C)C(=O)C[C@@H](C(=O)N(C)C)NC(=O)[C@H](C2CCCC2)N(C)C(=O)C2(CCCC2)NC(=O)[C@@H]2CCCN2C(=O)[C@H](CCc2ccc(C(F)(F)F)c(Cl)c2)NC(=O)CN(C)C(=O)[C@@H]1Cc1ccc(C(F)(F)F)cc1 [PP0361] ([NMeL]IG[Sar][NPrPhe(4-CF3)][Sar][hPhe(3-Cl-4-CF3)]P[Ac5c][NMeGly(cPent)]D-NMe2; lactam N-11) | C (A compound having a KD ratio of 0.1 or more and less than 3 is denoted as C) | B (a compound having 3 or more and less than 10 is denoted as B)
10 | CCCN1C(=O)CN(C)C(=O)CNC(=O)[C@H]([C@@H](C)CC)NC(=O)[C@H](CC(C)C)N(C)C(=O)C[C@@H](C(=O)N(C)C)NC(=O)[C@H](C2CCCC2)N(C)C(=O)C2(CCC2)NC(=O)[C@@H]2CCCN2C(=O)[C@H](CCc2ccc(C(F)(F)F)c(Cl)c2)NC(=O)CN(C)C(=O)[C@@H]1Cc1ccc(C(F)(F)F)cc1 [PP0362] ([NMeL]IG[Sar][NPrPhe(4-CF3)][Sar][hPhe(3-Cl-4-CF3)]P[Ac4c][NMeGly(cPent)]D-NMe2; lactam N-11) | B (a compound having 3 or more and less than 10 is denoted as B) | B (a compound having 3 or more and less than 10 is denoted as B)
11 | CCCN1C(=O)CN(C)C(=O)CNC(=O)[C@H]([C@@H](C)CC)NC(=O)[C@H](CC(C)C)N(C)C(=O)C[C@@H](C(=O)N(C)C)NC(=O)[C@H](C2CCCC2)N(C)C(=O)C2(CCCC2)NC(=O)[C@@H]2CC(F)(F)CN2C(=O)[C@H](CCc2ccc(C(F)(F)F)c(Cl)c2)NC(=O)CN(C)C(=O)[C@@H]1Cc1ccc(C(F)(F)F)cc1 [PP0363] ([NMeL]IG[Sar][NPrPhe(4-CF3)][Sar][hPhe(3-Cl-4-CF3)][Pro(4,4-F2)][Ac5c][NMeGly(cPent)]D-NMe2; lactam N-11) | C (A compound having a KD ratio of 0.1 or more and less than 3 is denoted as C) | B (a compound having 3 or more and less than 10 is denoted as B)
12 | CCCN1C(=O)CN(C)C(=O)CNC(=O)[C@H]([C@@H](C)CC)NC(=O)[C@H](CC(C)C)N(C)C(=O)C[C@@H](C(=O)N(C)C)NC(=O)[C@H](C2CCCC2)N(C)C(=O)C2(CCC2)NC(=O)[C@@H]2CC(F)(F)CN2C(=O)[C@H](CCc2ccc(C(F)(F)F)c(Cl)c2)NC(=O)CN(C)C(=O)[C@@H]1Cc1ccc(C(F)(F)F)cc1 [PP0364] ([NMeL]IG[Sar][NPrPhe(4-CF3)][Sar][hPhe(3-Cl-4-CF3)][Pro(4,4-F2)][Ac4c][NMeGly(cPent)]D-NMe2; lactam N-11) | B (a compound having 3 or more and less than 10 is denoted as B) | B (a compound having 3 or more and less than 10 is denoted as B)
13 | CCCN1C(=O)CN(C)C(=O)CNC(=O)[C@H]([C@@H](C)CC)NC(=O)[C@H](CC(C)C)N(C)C(=O)C[C@@H](C(=O)N(C)C)NC(=O)[C@H](C2CCCC2)N(C)C(=O)C2(CCCC2)NC(=O)[C@@H]2C[C@@H](OCC)CN2C(=O)[C@H](CCc2ccc(C(F)(F)F)c(Cl)c2)NC(=O)CN(C)C(=O)[C@@H]1Cc1ccc(C(F)(F)F)cc1 [PP0365] ([NMeL]IG[Sar][NPrPhe(4-CF3)][Sar][hPhe(3-Cl-4-CF3)][Hyp](Et)[Ac5c][NMeGly(cPent)]D-NMe2; lactam N-11) | B (a compound having 3 or more and less than 10 is denoted as B) | B (a compound having 3 or more and less than 10 is denoted as B)
